22 compounds from patent US20050032873A1, “3-Amino chroman and 2-amino tetralin derivatives” (Wyeth, priority 2003, published 2005) can be followed below.

Where a name gives a salt, the structure may show the parent alone. Read-outs that look alike come from different tables or passages of the source.

In one data set the target is T1, serotonin transporter (Rattus norvegicus, UniProt P31652).
T1 construct: displace ^3H-paroxetine from male rat cortical membranes; from tissue; host or cells: male rat cortical membranes
T1 sequence (P31652 whole entry): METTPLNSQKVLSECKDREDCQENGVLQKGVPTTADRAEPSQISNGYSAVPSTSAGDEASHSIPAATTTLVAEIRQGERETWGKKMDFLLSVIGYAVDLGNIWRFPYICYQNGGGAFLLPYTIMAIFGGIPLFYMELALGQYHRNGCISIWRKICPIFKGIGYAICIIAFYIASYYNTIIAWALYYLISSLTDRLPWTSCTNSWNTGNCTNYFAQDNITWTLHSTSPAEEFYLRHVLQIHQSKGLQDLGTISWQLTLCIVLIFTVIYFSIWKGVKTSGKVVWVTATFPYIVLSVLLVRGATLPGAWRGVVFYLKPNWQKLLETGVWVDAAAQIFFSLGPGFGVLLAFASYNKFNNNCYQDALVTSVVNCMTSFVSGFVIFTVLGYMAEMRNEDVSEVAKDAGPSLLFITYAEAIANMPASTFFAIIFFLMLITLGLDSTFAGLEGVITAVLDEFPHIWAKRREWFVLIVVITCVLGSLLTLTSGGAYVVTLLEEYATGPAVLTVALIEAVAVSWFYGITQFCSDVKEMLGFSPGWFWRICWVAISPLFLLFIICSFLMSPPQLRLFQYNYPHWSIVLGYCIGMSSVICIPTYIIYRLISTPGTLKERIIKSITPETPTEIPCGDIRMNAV
The data set is described as follows: 5-HT transporter affinity: displacement of 3H-paroxetine from male rat cortical membranes. Type of data set: binding. The following applies: displacement of 3H-paroxetine; male rat cortical membranes; read-out: 5-HT Transporter Affinity Ki. (In general: Displacement assays read how much labelled ligand stays bound in the presence of the test substance.)

For data set [1], the target named is T2, cloned human 5-HT1A receptors (Homo sapiens, UniProt P08908).
T2 construct: expressed in transfected cells
T2 sequence (P08908 1-422): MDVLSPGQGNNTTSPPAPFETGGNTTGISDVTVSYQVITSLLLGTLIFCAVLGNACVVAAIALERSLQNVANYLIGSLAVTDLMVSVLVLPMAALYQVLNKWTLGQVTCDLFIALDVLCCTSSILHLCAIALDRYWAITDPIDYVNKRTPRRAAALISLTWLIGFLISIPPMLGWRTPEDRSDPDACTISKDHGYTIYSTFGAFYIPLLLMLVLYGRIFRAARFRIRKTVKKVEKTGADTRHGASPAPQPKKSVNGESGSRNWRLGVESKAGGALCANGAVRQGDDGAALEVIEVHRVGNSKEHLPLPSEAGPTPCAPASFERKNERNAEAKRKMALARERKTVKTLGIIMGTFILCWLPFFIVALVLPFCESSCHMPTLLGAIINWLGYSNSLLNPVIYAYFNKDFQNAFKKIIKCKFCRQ
Kind of data set: 35S-GTPγS binding assay, 5-HT1A function. Conditions: for IC50: antagonist potency, reversal of 8-OH-DPAT, read-out: 5-HT1A Function GTPγS IC50; for EC50: agonist potency. Type of data set: biochemical.
Text: The agonist or antagonist activity at 5-HT1A receptors was established by using two different assays. […] Agonists produce an increase in binding whereas antagonists produce no increase but rather reverse the effects of the standard agonist 8-OH-DPAT. The test compound's maximum stimulatory effect is represented as the Emax, while its potency is defined by the EC50. The test compound's maximum inhibitory effect is represented as the Imax, while its potency is defined by the IC50. The second assay measured cAMP accumulation upon binding of the ligand to the 5-HT1A receptor. […] The test compound's maximum stimulatory or inhibitory effect is represented as the Emax while its potency is defined by either IC50 for an antagonist or EC50 for an agonist. [^3H]-8-OH-DPAT was used to determine maximum agonist or antagonist response in both functional assays.

Data set [2] deals with T3, 5-HT1A receptor (Homo sapiens, UniProt P08908).
T3 sequence (P08908 1-422): T2 sequence (P08908 1-422)
Kind of data set: 5-HT1A receptor affinity: displacement of [3H] 8-OH-DPAT. The following applies: displacement of [3H] 8-OH-DPAT; CHO cells stably transfected with human 5-HT1A receptors; read-out: 5-HT1A Receptor Affinity Ki. It counts as binding. More on the design: expressed in transfected cells.

Data set [3] concerns the target T3, 5-HT1A receptor. Kind of data set: cAMP accumulation assay, 5-HT1A function. Type of data set: cell-based. Conditions: for IC50: cells marked IC50 (antagonist), read-out: 5-HT1A Function cAMP IC50; for Emax / 5-HT1A Function cAMP (Emax): in brackets after EC50 or IC50; for Emax: read-out: 5-HT1A Function cAMP (Emax); for EC50: cells marked EC50 (agonist). (Cyclic AMP is a second messenger, typically raised through Gs and lowered through Gi signalling.)

[4] abbreviates: maximum inhibitory effect, in brackets after IC50, read-out: 5-HT1A Function GTPγS (Imax).
[5] abbreviates: maximum stimulatory effect, in brackets after EC50, read-out: 5-HT1A Function GTPγS (Emax).
The mark [6] stands for this setting: maximum stimulatory effect, in brackets after EC50.

On to `NC(=O)c1ccc(F)c2c1CC(NCCCc1c[nH]c3ccc(F)cc13)CO2` (stereo not drawn) (as salt: hydrochloride) [Compound 1, 8-fluoro-3-{[3-(5-fluoro-1H-indol-3-yl)propyl]amino}chromane-5-carboxamide], for which the melting point (as a rule, the temperature of the solid-liquid transition) was 122 °C (dec.).

Consider `CCCN(CCCc1c[nH]c2ccc(F)cc12)C1COc2c(F)ccc(C(N)=O)c2C1` (stereo not drawn) (as salt: hydrochloride) [Compound 2, 8-fluoro-3-{[3-(5-fluoro-1H-indol-3-yl)propyl](propyl)amino}chromane-5-carboxamide], for which the melting point was 125 °C (dec.).

For `NC(=O)c1ccc(F)c2c1CC(N(CCCc1c[nH]c3ccc(F)cc13)CC1CC1)CO2` (stereo not drawn) (as salt: hydrochloride) [Compound 5, 3-{(cyclopropylmethyl)[3-(5-fluoro-1H-indol-3-yl)propyl]amino}-8-fluorochromane-5-carboxamide], the melting point was 121 °C (dec.).

`CC(C1CC1)N(CCCc1c[nH]c2ccc(F)cc12)C1COc2c(F)ccc(C(N)=O)c2C1` (stereo not drawn) (as salt: hydrochloride) [Compound 6, 3-{(1-cyclopropylethyl)[3-(5-fluoro-1H-indol-3-yl)propyl]amino}-8-fluorochromane-5-carboxamide]: the melting point is 124 °C (dec.).

For the compound `NC(=O)c1ccc(F)c2c1CC(N(CCC(=O)c1c[nH]c3ccc(F)cc13)C1CCC1)CO2` (stereo not drawn) (as salt: hydrochloride) [Compound 8, 3-{cyclobutyl[3-(5-fluoro-1H-indol-3-yl)-3-oxopropyl]amino}-8-fluorochromane-5-carboxamide], the melting point is 139 °C (dec.).

In the case of `COC(=O)c1ccc(F)c2c1CC(NCCCc1c[nH]c3ccc(F)cc13)CO2` (stereo not drawn) (as salt: hydrochloride) [Compound 10, Methyl 8-fluoro-3-{[3-(5-fluoro-1H-indol-3-yl)propyl]amino}chromane-5-carboxylate], the melting point is 219 °C (dec.).

For the compound `COC(=O)c1ccc(F)c2c1CC(N(CCCc1c[nH]c3ccc(F)cc13)C1CCC1)CO2` (stereo not drawn) (as salt: hydrochloride) [Compound 11, Methyl 3-{cyclobutyl[3-(5-fluoro-1H-indol-3-yl)propyl]amino}-8-fluorochromane-5-carboxylate], the melting point is 110 °C (dec.).

With `CCCN(CCC(O)c1csc2ccc(F)cc12)C1COc2c(F)ccc(C(N)=O)c2C1` (stereo not drawn) (as salt: hydrochloride) [Compound 17, 8-fluoro-3-[[3-(5-fluoro-1-benzothien-3-yl)-3-hydroxypropyl](propyl)amino]chromane-5-carboxamide], the melting point was 117 °C (dec.).

As to `CCCN(CCCc1csc2ccc(F)cc12)C1COc2cccc(OC)c2C1` (stereo not drawn) (as salt: hydrochloride) [Compound 19, N-[3-(5-fluoro-1-benzothien-3-yl)propyl]-5-methoxy-N-propylchroman-3-amine], the melting point was 78 °C (dec.).

Turning to `CCCN(CCCc1coc2ccccc12)C1COc2c(F)ccc(C(N)=O)c2C1` (stereo not drawn) (as salt: hydrochloride) [Compound 20, 3-[[3-(1-benzofuran-3-yl)propyl](propyl)amino]-8-fluorochromane-5-carboxamide], the melting point is 114 to 118 °C (dec.).

Take `COc1cccc2c(CCCN(C3CCC3)C3COc4c(F)ccc(C(N)=O)c4C3)coc12` (stereo not drawn) [Compound 164, 3-{cyclobutyl[3-(7-methoxy-1-benzofuran-3-yl)propyl]amino}-8-fluorochromane-5-carboxamide]: the Ki (commonly a measure of affinity in units of concentration, obtained from inhibition or displacement) came to 0.428 µM on serotonin transporter and 0.0119 µM on 5-HT1A receptor [2]. In addition, the IC50 – broadly, the concentration at which inhibition is half-maximal – in data set [1] stood at 0.446 µM; on 5-HT1A receptor [3] it was 0.116 µM. For the same compound, the figures for the Emax (in data set [1] (setting [4]); on 5-HT1A receptor [3]) were 100% and 0%, respectively.

For the compound `COc1cccc2c(CCCN(CC3CC3)C3COc4c(F)ccc(C(N)=O)c4C3)coc12` (stereo not drawn) [Compound 165, 3-{(cyclopropylmethyl)[3-(7-methoxy-1-benzofuran-3-yl)propyl]amino}-8-fluorochromane-5-carboxamide], the Ki at serotonin transporter worked out at 0.913 µM; at 5-HT1A receptor [2] it was 0.00106 µM. Moreover, the response in data set [1] was half-maximal at 0.211 µM (EC50). The IC50 amounted to 0.116 µM in data set [1] and 0.0523 µM at 5-HT1A receptor [3]. The Emax worked out at 91% in data set [1] (setting [4]), 22% in data set [1] (setting [5]) and 0% at 5-HT1A receptor [3].

On to `CCN(CCCCc1coc2c(OC)cccc12)C1COc2c(F)ccc(C(N)=O)c2C1` (stereo not drawn) [Compound 168, 3-{ethyl[4-(7-methoxy-1-benzofuran-3-yl)butyl]amino}-8-fluorochromane-5-carboxamide], for which the inhibitory constant (Ki) at serotonin transporter came out at 0.187 µM; on 5-HT1A receptor [2], 0.00349 µM. Moreover, in data set [1], the EC50 (commonly the concentration giving half of the maximal effect) is 0.243 µM. For the same compound, the Emax is 76% in data set [1] (setting [5]) and 0% at 5-HT1A receptor [3]. The IC50 on 5-HT1A receptor [3] stood at 0.0508 µM.

With `CCCN(CCCCc1coc2c(OC)cccc12)C1COc2c(F)ccc(C(N)=O)c2C1` (stereo not drawn) [Compound 169, 8-fluoro-3-[[4-(7-methoxy-1-benzofuran-3-yl)butyl](propyl)amino]chromane-5-carboxamide], the Ki at serotonin transporter turned out to be 0.528 µM; at 5-HT1A receptor [2], 0.00148 µM. For the same compound, the IC50 came to 0.265 µM in data set [1] and 0.0114 µM at 5-HT1A receptor [3]. In addition, the Emax was determined as 100% in data set [1] (setting [4]) and 0% on 5-HT1A receptor [3].

Regarding `COc1cccc2c(CCCCN(CC3CC3)C3COc4c(F)ccc(C(N)=O)c4C3)coc12` (stereo not drawn) [Compound 170, 3-{(cyclopropylmethyl)[4-(7-methoxy-1-benzofuran-3-yl)butyl]amino}-8-fluorochromane-5-carboxamide], the inhibitory constant (Ki) at serotonin transporter is 0.457 µM; on 5-HT1A receptor [2], 0.00072 µM. Further, the IC50 stood at 0.158 µM in data set [1] and 0.103 µM on 5-HT1A receptor [3]. The results for the Emax (in data set [1] (setting [4]); on 5-HT1A receptor [3]) were 100% and 0%, respectively.

`COc1cccc2c(CCCCN(C3CCC3)C3COc4c(F)ccc(C(N)=O)c4C3)coc12` (stereo not drawn) [Compound 171, 3-{cyclobutyl[4-(7-methoxy-1-benzofuran-3-yl)butyl]amino}-8-fluorochromane-5-carboxamide]: the Ki on serotonin transporter was 11.2 µM; at 5-HT1A receptor [2] it was 0.00427 µM. The figures for the IC50 (in data set [1]; on 5-HT1A receptor [3]) were 0.404 µM and 0.108 µM, respectively. Moreover, the Emax in data set [1] (setting [4]) is 100%; on 5-HT1A receptor [3], 0%.

Consider `CCN(CCCCn1ccc2cccc(F)c21)C1COc2c(F)ccc(C(N)=O)c2C1` (stereo not drawn) [Compound 189, 3-{Ethyl[4-(7-fluoro-1H-indol-1-yl)butyl]amino}-8-fluorochromane-5-carboxamide], for which the Ki on serotonin transporter was determined as 0.0271 µM; on 5-HT1A receptor [2], 0.0374 µM. In data set [1], the IC50 turned out to be 0.233 µM. The Emax in data set [1] (setting [4]) came to 100%; at 5-HT1A receptor [3] it was 77.5%. Besides, the midpoint of the response at 5-HT1A receptor [3], the EC50, lay at 0.286 µM.

In the case of `NC(=O)c1ccc(F)c2c1CC(N(CCCCn1ccc3ccc(F)cc31)CC1CC1)CO2` (stereo not drawn) [Compound 195, 3-{(Cyclopropylmethyl)[4-(6-fluoro-1H-indol-1-yl)butyl]amino}-8-fluorochromane-5-carboxamide], the Ki was 0.0125 µM at serotonin transporter and 0.00325 µM at 5-HT1A receptor [2]. Besides, in data set [1], the IC50 was determined as 0.371 µM. Also, the Emax in data set [1] (setting [4]) was 100%; at 5-HT1A receptor [3] it was 58%. For the same compound, the EC50 on 5-HT1A receptor [3] was determined as 0.0219 µM.

Turning to `NC(=O)c1ccc(F)c2c1CC(N(CCCCn1ccc3c(F)cccc31)CC1CC1)CO2` (stereo not drawn) [Compound 203, 3-{(Cyclopropylmethyl)[4-(4-fluoro-1H-indol-1-yl)butyl]amino}-8-fluorochromane-5-carboxamide], the Ki on serotonin transporter came to 0.161 µM; on 5-HT1A receptor [2], 0.00964 µM. Also, the IC50 in data set [1] came out at 6.06 µM. Further, the results for the Emax (in data set [1] (setting [4]); at 5-HT1A receptor [3]) were 80% and 72%, respectively. This compound gave an EC50 on 5-HT1A receptor [3] of 0.216 µM.

“[3-(5-fluoro-1H-indol-3-yl)-propyl]-(8-fluoro-5-methoxychroman-3-yl)propylamine [Compound 26]”: the figures for the Ki at serotonin transporter and at 5-HT1A receptor [2] were 0.0125 µM and 0.0194 µM, respectively. Besides, the figures for the EC50 (in data set [1]; on 5-HT1A receptor [3]) were 0.21 µM and 0.0236 µM, respectively. Also, the 5-HT1A Function GTPγS (Emax) in data set [1] (setting [6]) was determined as 79.5%. At 5-HT1A receptor [3], this compound came in with a 5-HT1A Function cAMP (Emax) of 83.5%.

“[3-(5-fluoro-1H-indol-3-yl)-propyl]-((3R)-5-methoxychroman-3-yl)propylamine [Compound 24]”: the Ki was determined as 0.00975 µM on serotonin transporter and 0.00887 µM on 5-HT1A receptor [2]. For the same compound, the EC50 in data set [1] turned out to be 0.0483 µM; on 5-HT1A receptor [3], 0.00702 µM. This compound also showed a 5-HT1A Function GTPγS (Emax) in data set [1] (setting [6]) of 91.7%. On 5-HT1A receptor [3], this compound gave a 5-HT1A Function cAMP (Emax) of 88.5%.

In the case of “[3-(5-fluoro-1H-indol-3-yl)-propyl]-((3S)-5-methoxychroman-3-yl)propylamine [Compound 25]”, the Ki came out at 0.0165 µM on serotonin transporter and 0.0243 µM at 5-HT1A receptor [2]. For the same compound, the EC50 amounted to 0.155 µM in data set [1] and 0.00106 µM on 5-HT1A receptor [3]. The compound also displayed a 5-HT1A Function GTPγS (Emax) in data set [1] (setting [6]) of 88%. This compound also yielded a 5-HT1A Function cAMP (Emax) at 5-HT1A receptor [3] of 93.5%.
